Reference: the NIST ThermoML archive (doi:10.1021/je0499364)
Numbers after ± are expanded uncertainties.

Experiments:
[1] = Molar enthalpy of transition or fusion; conditions: Crystal
[2] = Crystal
[3] = molar heat capacity at constant pressure; conditions: 101.33 kPa

CCCCCCCCCCCCCCCC(=O)OC [methyl hexadecanoate]
Conditions | Molar enthalpy of transition or fusion [kcal/mol]
[1] | 14.35 ± 0.127

Conditions | Triple point temperature [K]
[2], Adiabatic calorimetry | 302.71 ± 0.16

[3]
Conditions | molar heat capacity at constant pressure [J/K/mol]
5 K, Crystal | 0.66 ± 0.04
10 K, Crystal | 5.56 ± 0.11
20 K, Crystal | 23.7 ± 0.29
30 K, Crystal | 47.98 ± 0.28
40 K, Crystal | 75.87 ± 0.39
50 K, Crystal | 104.12 ± 0.5
60 K, Crystal | 129.69 ± 0.6
70 K, Crystal | 151.19 ± 0.69
80 K, Crystal | 167.13 ± 0.75
90 K, Crystal | 184.19 ± 0.77
100 K, Crystal | 198.32 ± 0.8
110 K, Crystal | 213.49 ± 0.83
120 K, Crystal | 226.5 ± 0.85
130 K, Crystal | 238.62 ± 0.88
140 K, Crystal | 250.27 ± 0.9
150 K, Crystal | 261.54 ± 0.92
160 K, Crystal | 272.73 ± 0.95
170 K, Crystal | 284.03 ± 0.97
180 K, Crystal | 295.27 ± 0.99
190 K, Crystal | 306.8 ± 1
200 K, Crystal | 318.65 ± 1
210 K, Crystal | 330.97 ± 1.1
220 K, Crystal | 343.93 ± 1.1
230 K, Crystal | 357.74 ± 1.1
240 K, Crystal | 372.37 ± 1.1
250 K, Crystal | 388.24 ± 1.2
260 K, Crystal | 405.39 ± 1.2
270 K, Crystal | 423.81 ± 1.2
280 K, Crystal | 448.6 ± 1.3
290 K, Crystal | 482.7 ± 1.4
300 K, Crystal | 740.48 ± 1.9
310 K, Liquid | 570.55 ± 1.5
320 K, Liquid | 576.47 ± 1.6
330 K, Liquid | 583.02 ± 1.6
340 K, Liquid | 590.14 ± 1.6
350 K, Liquid | 597.66 ± 1.6

CCCCCCCCCCCCCCCCC(=O)OC [methyl heptadecanoate]
Conditions | Molar enthalpy of transition or fusion [kcal/mol] | Triple point temperature [K]
[1] | 15.27 ± 0.129 | –
[2] | – | 303.09 ± 0.16

[3]
Conditions | molar heat capacity at constant pressure [J/K/mol]
5 K, Crystal | 0.56 ± 0.06
10 K, Crystal | 4.36 ± 0.18
20 K, Crystal | 23.27 ± 0.56
30 K, Crystal | 48.82 ± 0.55
40 K, Crystal | 77.97 ± 0.79
50 K, Crystal | 106.88 ± 1
60 K, Crystal | 131.71 ± 1.2
70 K, Crystal | 154.68 ± 1.4
80 K, Crystal | 175.53 ± 1.6
90 K, Crystal | 192.9 ± 1.6
100 K, Crystal | 208.51 ± 1.6
110 K, Crystal | 224.09 ± 1.7
120 K, Crystal | 238.4 ± 1.8
130 K, Crystal | 252.69 ± 1.8
140 K, Crystal | 265.74 ± 1.9
150 K, Crystal | 275.72 ± 1.9
160 K, Crystal | 284.57 ± 1.9
170 K, Crystal | 302.09 ± 2
180 K, Crystal | 313.76 ± 2.1
190 K, Crystal | 326.38 ± 2.1
200 K, Crystal | 340.04 ± 2.2
210 K, Crystal | 355.66 ± 2.2
220 K, Crystal | 367.89 ± 2.3
230 K, Crystal | 382.88 ± 2.3
240 K, Crystal | 399.49 ± 2.4
250 K, Crystal | 418.37 ± 2.5
260 K, Crystal | 438.62 ± 2.5
270 K, Crystal | 456.93 ± 2.6
280 K, Crystal | 480.24 ± 2.7
290 K, Crystal | 517.76 ± 2.9
310 K, Liquid | 599.17 ± 1.6
320 K, Liquid | 605.44 ± 1.6
330 K, Liquid | 609.25 ± 1.6
340 K, Liquid | 615.4 ± 1.6
350 K, Liquid | 622.81 ± 1.6

CCCCCCCCCCCCC(=O)OC [methyl tridecanoate]
Conditions | Molar enthalpy of transition or fusion [kcal/mol] | Triple point temperature [K]
[1] | 10.9 ± 0.124 | –
[2] | – | 279.07 ± 0.16

[3]
Conditions | molar heat capacity at constant pressure [J/K/mol]
5 K, Crystal | 0.53 ± 0.03
10 K, Crystal | 4.03 ± 0.09
20 K, Crystal | 19.77 ± 0.24
30 K, Crystal | 41.39 ± 0.25
40 K, Crystal | 65.69 ± 0.35
50 K, Crystal | 89.16 ± 0.44
60 K, Crystal | 108.8 ± 0.52
70 K, Crystal | 127.88 ± 0.59
80 K, Crystal | 144.45 ± 0.66
90 K, Crystal | 158.95 ± 0.72
100 K, Crystal | 171.63 ± 0.74
110 K, Crystal | 183.91 ± 0.77
120 K, Crystal | 195.21 ± 0.79
130 K, Crystal | 205.64 ± 0.81
140 K, Crystal | 215.67 ± 0.83
150 K, Crystal | 225.37 ± 0.85
160 K, Crystal | 234.95 ± 0.87
170 K, Crystal | 244.5 ± 0.89
180 K, Crystal | 254.1 ± 0.91
190 K, Crystal | 264.04 ± 0.93
200 K, Crystal | 274.24 ± 0.95
210 K, Crystal | 284.88 ± 0.97
220 K, Crystal | 296.06 ± 0.99
230 K, Crystal | 307.94 ± 1
240 K, Crystal | 321.07 ± 1
250 K, Crystal | 336.07 ± 1.1
260 K, Crystal | 350.98 ± 1.1
270 K, Crystal | 371.61 ± 1.1
290 K, Liquid | 463.91 ± 1.3
300 K, Liquid | 469.05 ± 1.3
310 K, Liquid | 473.89 ± 1.4
320 K, Liquid | 479.3 ± 1.4
330 K, Liquid | 485.18 ± 1.4
340 K, Liquid | 491.82 ± 1.4

CCCCCCCCCCCCCC(=O)OC [methyl tetradecanoate]
Conditions | Molar enthalpy of transition or fusion [kcal/mol] | Triple point temperature [K]
[1] | 12.43 ± 0.124 | –
[2] | – | 292.14 ± 0.16

[3]
Conditions | molar heat capacity at constant pressure [J/K/mol]
5 K, Crystal | 0.55 ± 0.03
10 K, Crystal | 4.56 ± 0.1
20 K, Crystal | 21.34 ± 0.26
30 K, Crystal | 43.99 ± 0.26
40 K, Crystal | 69.2 ± 0.36
50 K, Crystal | 93.62 ± 0.46
60 K, Crystal | 113.9 ± 0.54
70 K, Crystal | 133.41 ± 0.61
80 K, Crystal | 150.35 ± 0.68
90 K, Crystal | 165.54 ± 0.73
100 K, Crystal | 179.38 ± 0.76
110 K, Crystal | 192.06 ± 0.78
120 K, Crystal | 203.55 ± 0.81
130 K, Crystal | 214.52 ± 0.83
140 K, Crystal | 224.93 ± 0.85
150 K, Crystal | 235.23 ± 0.87
160 K, Crystal | 244.79 ± 0.89
170 K, Crystal | 254.91 ± 0.91
180 K, Crystal | 265.19 ± 0.93
190 K, Crystal | 275.63 ± 0.95
200 K, Crystal | 286.07 ± 0.97
210 K, Crystal | 296.67 ± 0.99
220 K, Crystal | 308.85 ± 1
230 K, Crystal | 321.05 ± 1
240 K, Crystal | 334.49 ± 1.1
250 K, Crystal | 349.48 ± 1.1
260 K, Crystal | 368.64 ± 1.1
270 K, Crystal | 388.14 ± 1.2
280 K, Crystal | 429.3 ± 1.3
300 K, Liquid | 500.03 ± 1.4
310 K, Liquid | 504.66 ± 1.4
320 K, Liquid | 510 ± 1.4
330 K, Liquid | 515.86 ± 1.4
340 K, Liquid | 522.03 ± 1.4
350 K, Liquid | 528.04 ± 1.5

CCCCCCCCCCCCCCC(=O)OC [methyl pentadecanoate]
Conditions | Molar enthalpy of transition or fusion [kcal/mol] | Triple point temperature [K]
[1] | 12.97 ± 0.124 | –
[2] | – | 292.35 ± 0.16

[3]
Conditions | molar heat capacity at constant pressure [J/K/mol]
5 K, Crystal | 0.5 ± 0.03
10 K, Crystal | 4.15 ± 0.09
20 K, Crystal | 21.13 ± 0.26
30 K, Crystal | 43.92 ± 0.26
40 K, Crystal | 71.36 ± 0.37
50 K, Crystal | 97.58 ± 0.47
60 K, Crystal | 120.37 ± 0.56
70 K, Crystal | 141.42 ± 0.65
80 K, Crystal | 159.35 ± 0.72
90 K, Crystal | 175.8 ± 0.75
100 K, Crystal | 190.15 ± 0.78
110 K, Crystal | 203.86 ± 0.81
120 K, Crystal | 216.45 ± 0.83
130 K, Crystal | 228.03 ± 0.86
140 K, Crystal | 239.15 ± 0.88
150 K, Crystal | 249.97 ± 0.9
160 K, Crystal | 260.57 ± 0.92
170 K, Crystal | 272.29 ± 0.94
180 K, Crystal | 282.1 ± 0.96
190 K, Crystal | 293.1 ± 0.99
200 K, Crystal | 304.43 ± 1
210 K, Crystal | 316.28 ± 1
220 K, Crystal | 328.72 ± 1.1
230 K, Crystal | 341.8 ± 1.1
240 K, Crystal | 355.9 ± 1.1
250 K, Crystal | 371.28 ± 1.1
260 K, Crystal | 387.35 ± 1.2
270 K, Crystal | 403.92 ± 1.2
280 K, Crystal | 432.13 ± 1.3
300 K, Liquid | 524.33 ± 1.4
310 K, Liquid | 534.12 ± 1.5
320 K, Liquid | 539.26 ± 1.5
330 K, Liquid | 544.8 ± 1.5
340 K, Liquid | 551.15 ± 1.5

CCCCCCCCCCCC(=O)OC [methyl dodecanoate]
Conditions | Molar enthalpy of transition or fusion [kcal/mol] | Triple point temperature [K]
[1] | 10.3 ± 0.124 | –
[2] | – | 278.18 ± 0.16

[3]
Conditions | molar heat capacity at constant pressure [J/K/mol]
5 K, Crystal | 0.5 ± 0.03
10 K, Crystal | 4.31 ± 0.09
20 K, Crystal | 19.62 ± 0.24
30 K, Crystal | 40.21 ± 0.24
40 K, Crystal | 63.08 ± 0.34
50 K, Crystal | 85.07 ± 0.42
60 K, Crystal | 103.02 ± 0.49
70 K, Crystal | 119.02 ± 0.56
80 K, Crystal | 134.57 ± 0.62
90 K, Crystal | 148.81 ± 0.7
100 K, Crystal | 160.46 ± 0.72
110 K, Crystal | 171.83 ± 0.74
120 K, Crystal | 181.94 ± 0.76
130 K, Crystal | 191.82 ± 0.78
140 K, Crystal | 201.16 ± 0.8
150 K, Crystal | 209.76 ± 0.82
160 K, Crystal | 218.85 ± 0.84
170 K, Crystal | 227.97 ± 0.86
180 K, Crystal | 237.26 ± 0.87
190 K, Crystal | 246.66 ± 0.89
200 K, Crystal | 256.21 ± 0.91
210 K, Crystal | 265.84 ± 0.93
220 K, Crystal | 277.21 ± 0.95
230 K, Crystal | 288.57 ± 0.98
240 K, Crystal | 299.95 ± 1
250 K, Crystal | 315.69 ± 1
260 K, Crystal | 335.52 ± 1.1
270 K, Crystal | 392.98 ± 1.2
280 K, Liquid | 428 ± 1.3
290 K, Liquid | 432.76 ± 1.3
300 K, Liquid | 438.82 ± 1.3
310 K, Liquid | 443.32 ± 1.3
320 K, Liquid | 448.38 ± 1.3
330 K, Liquid | 453.83 ± 1.3
340 K, Liquid | 460.08 ± 1.3
350 K, Liquid | 467.86 ± 1.3
